Laboratory results from PubChem BioAssay (NCI).
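96-well plates; 48 h exposure; 5 concentrations. Endpoints by linear interpolation between flanking doses. Not reached: highest tested concentration assigned. TGI is the concentration that stops growth completely.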

Assays:
Experiment in all cases: NCI tumour cell line growth inhibition, 48 h
A549 NSCLC = test system: A549 NSCLC
HCC-2998 colon = test system: HCC-2998 colon
U251 CNS = test system: U251 CNS
SR leukemia = test system: SR leukemia
HCT-116 colon = test system: HCT-116 colon
786-0 renal = test system: 786-0 renal
MOLT-4 leukemia = test system: MOLT-4 leukemia
SF-295 CNS = test system: SF-295 CNS
OVCAR-3 ovarian = test system: OVCAR-3 ovarian
A498 renal = test system: A498 renal
KM20L2 colon = test system: KM20L2 colon
HOP-92 NSCLC = test system: HOP-92 NSCLC
LOX IMVI melanoma = test system: LOX IMVI melanoma
M19-MEL melanoma = test system: M19-MEL melanoma
OVCAR-8 ovarian = test system: OVCAR-8 ovarian
SF-539 CNS = test system: SF-539 CNS
OVCAR-4 ovarian = test system: OVCAR-4 ovarian
NCI-H226 lung = test system: NCI-H226 lung
EKVX NSCLC = test system: EKVX NSCLC
HL-60(TB) leukemia = test system: HL-60(TB) leukemia
UACC-62 melanoma = test system: UACC-62 melanoma
SNB-75 CNS = test system: SNB-75 CNS
XF 498 CNS = test system: XF 498 CNS
SNB-19 CNS = test system: SNB-19 CNS
HCT-15 colon = test system: HCT-15 colon
MALME-3M melanoma = test system: MALME-3M melanoma
IGROV1 ovarian = test system: IGROV1 ovarian
NCI-H23 lung = test system: NCI-H23 lung
SK-MEL-5 melanoma = test system: SK-MEL-5 melanoma
COLO 205 colon = test system: COLO 205 colon
CCRF-CEM leukemia = test system: CCRF-CEM leukemia
SNB-78 CNS = test system: SNB-78 CNS
NCI-H460 lung = test system: NCI-H460 lung
RPMI-8226 leukemia = test system: RPMI-8226 leukemia
ACHN renal = test system: ACHN renal
HOP-18 NSCLC = test system: HOP-18 NSCLC
TK-10 renal = test system: TK-10 renal
OVCAR-5 ovarian = test system: OVCAR-5 ovarian
DLD-1 colon = test system: DLD-1 colon
SK-OV-3 ovarian = test system: SK-OV-3 ovarian
DMS 114 small cell lung = test system: DMS 114 small cell lung
LXFL 529 NSCLC = test system: LXFL 529 NSCLC
CAKI-1 renal = test system: CAKI-1 renal
KM12 colon = test system: KM12 colon
K-562 leukemia = test system: K-562 leukemia
SK-MEL-2 melanoma = test system: SK-MEL-2 melanoma
UACC-257 melanoma = test system: UACC-257 melanoma
RXF 393 renal = test system: RXF 393 renal
M14 melanoma = test system: M14 melanoma
SN12C renal = test system: SN12C renal
SF-268 CNS = test system: SF-268 CNS
HT29 colon = test system: HT29 colon
HOP-62 NSCLC = test system: HOP-62 NSCLC
NCI-H522 lung = test system: NCI-H522 lung
UO-31 renal = test system: UO-31 renal
DMS 273 small cell lung = test system: DMS 273 small cell lung
SK-MEL-28 melanoma = test system: SK-MEL-28 melanoma
RXF-631 renal = test system: RXF-631 renal
SW-620 colon = test system: SW-620 colon

In the case of `O=C(c1nc2ccc(Cl)cc2[nH]c1=O)C(O)c1cccc([N+](=O)[O-])c1` (configuration not stated), the TGI (A549 NSCLC) is reported as over 100 µM, the TGI (HCC-2998 colon) is reported as over 100 µM and the TGI (U251 CNS) is reported as over 100 µM. It also gave a TGI (SR leukemia) of over 100 µM, a TGI (HCT-116 colon) of over 100 µM and a TGI (786-0 renal) of over 100 µM. The TGI (MOLT-4 leukemia) was over 100 µM, the TGI (SF-295 CNS) was over 100 µM and the TGI (OVCAR-3 ovarian) was over 100 µM. It also gave a TGI (A498 renal) of over 100 µM, a TGI (KM20L2 colon) of over 100 µM and a TGI (HOP-92 NSCLC) of over 100 µM. The TGI (LOX IMVI melanoma) was 40 µM, the TGI (M19-MEL melanoma) was over 100 µM and the TGI (OVCAR-8 ovarian) was over 100 µM. For the same compound, the TGI (SF-539 CNS) was over 100 µM, the TGI (OVCAR-4 ovarian) was over 100 µM and the TGI (NCI-H226 lung) was over 100 µM. It also gave a TGI (EKVX NSCLC) of over 100 µM, a TGI (HL-60(TB) leukemia) of 74.1 µM and a TGI (UACC-62 melanoma) of over 100 µM. For the same compound, the TGI (SNB-75 CNS) was over 100 µM, the TGI (XF 498 CNS) was over 100 µM and the TGI (SNB-19 CNS) was over 100 µM. It also gave a TGI (HCT-15 colon) of over 100 µM, a TGI (MALME-3M melanoma) of over 100 µM and a TGI (IGROV1 ovarian) of over 100 µM. For the same compound, the TGI (NCI-H23 lung) was over 100 µM, the TGI (SK-MEL-5 melanoma) was over 100 µM and the TGI (COLO 205 colon) was over 100 µM. The TGI (CCRF-CEM leukemia) was over 100 µM, the TGI (SNB-78 CNS) was over 100 µM and the TGI (NCI-H460 lung) was over 100 µM. It also gave a TGI (RPMI-8226 leukemia) of over 100 µM, a TGI (ACHN renal) of over 100 µM and a TGI (HOP-18 NSCLC) of over 100 µM. For the same compound, the TGI (TK-10 renal) was over 100 µM, the TGI (OVCAR-5 ovarian) was over 100 µM and the TGI (DLD-1 colon) was over 100 µM. For the same compound, the TGI (SK-OV-3 ovarian) was over 100 µM, the TGI (DMS 114 small cell lung) was 17.6 µM and the TGI (LXFL 529 NSCLC) was over 100 µM. It also gave a TGI (CAKI-1 renal) of over 100 µM, a TGI (KM12 colon) of over 100 µM and a TGI (K-562 leukemia) of over 100 µM. It also gave a TGI (SK-MEL-2 melanoma) of over 100 µM, a TGI (UACC-257 melanoma) of over 100 µM and a TGI (RXF 393 renal) of over 100 µM. For the same compound, the TGI (M14 melanoma) was over 100 µM, the TGI (SN12C renal) was over 100 µM and the TGI (SF-268 CNS) was 81.5 µM. For the same compound, the TGI (HT29 colon) was 40.4 µM, the TGI (HOP-62 NSCLC) was over 100 µM and the TGI (NCI-H522 lung) was over 100 µM. For the same compound, the TGI (UO-31 renal) was over 100 µM, the TGI (DMS 273 small cell lung) was over 100 µM and the TGI (SK-MEL-28 melanoma) was 61.5 µM.
For `Cc1ccc([N+](=O)[O-])cc1NC(=O)/C(CC(=O)c1sc(C(N)=S)nc1C)=N\N`, the TGI (A549 NSCLC) was over 100 µM, the TGI (RXF-631 renal) was over 100 µM and the TGI (HCC-2998 colon) was over 100 µM. For the same compound, the TGI (U251 CNS) was over 100 µM, the TGI (SR leukemia) was over 100 µM and the TGI (HCT-116 colon) was over 100 µM. The TGI (786-0 renal) was over 100 µM, the TGI (MOLT-4 leukemia) was over 100 µM and the TGI (SF-295 CNS) was over 100 µM. For the same compound, the TGI (OVCAR-3 ovarian) was 80.7 µM, the TGI (A498 renal) was over 100 µM and the TGI (KM20L2 colon) was over 100 µM. For the same compound, the TGI (HOP-92 NSCLC) was over 100 µM, the TGI (LOX IMVI melanoma) was over 100 µM and the TGI (M19-MEL melanoma) was over 100 µM. It also gave a TGI (OVCAR-8 ovarian) of over 100 µM, a TGI (SF-539 CNS) of over 100 µM and a TGI (OVCAR-4 ovarian) of over 100 µM. For the same compound, the TGI (EKVX NSCLC) was over 100 µM, the TGI (HL-60(TB) leukemia) was over 100 µM and the TGI (UACC-62 melanoma) was over 100 µM. The TGI (SNB-75 CNS) was over 100 µM, the TGI (SNB-19 CNS) was over 100 µM and the TGI (HCT-15 colon) was over 100 µM. The TGI (MALME-3M melanoma) was over 100 µM, the TGI (IGROV1 ovarian) was over 100 µM and the TGI (NCI-H23 lung) was 83.8 µM. For the same compound, the TGI (SK-MEL-5 melanoma) was over 100 µM, the TGI (CCRF-CEM leukemia) was 79.2 µM and the TGI (SNB-78 CNS) was over 100 µM. For the same compound, the TGI (NCI-H460 lung) was over 100 µM, the TGI (RPMI-8226 leukemia) was over 100 µM and the TGI (ACHN renal) was over 100 µM. For the same compound, the TGI (HOP-18 NSCLC) was over 100 µM, the TGI (TK-10 renal) was over 100 µM and the TGI (OVCAR-5 ovarian) was over 100 µM. The TGI (DLD-1 colon) was over 100 µM, the TGI (SK-OV-3 ovarian) was over 100 µM and the TGI (DMS 114 small cell lung) was over 100 µM. For the same compound, the TGI (LXFL 529 NSCLC) was over 100 µM, the TGI (CAKI-1 renal) was over 100 µM and the TGI (KM12 colon) was over 100 µM. For the same compound, the TGI (K-562 leukemia) was over 100 µM, the TGI (SK-MEL-2 melanoma) was over 100 µM and the TGI (UACC-257 melanoma) was over 100 µM. The TGI (RXF 393 renal) was over 100 µM, the TGI (M14 melanoma) was over 100 µM and the TGI (SF-268 CNS) was over 100 µM. It also gave a TGI (HT29 colon) of over 100 µM, a TGI (HOP-62 NSCLC) of over 100 µM and a TGI (NCI-H522 lung) of 76.4 µM. For the same compound, the TGI (UO-31 renal) was over 100 µM, the TGI (DMS 273 small cell lung) was over 100 µM and the TGI (SW-620 colon) was over 100 µM. It also gave a TGI (SK-MEL-28 melanoma) of over 100 µM.
